Experimental data: PubChem BioAssay (NCI)
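The concentration for 50% growth inhibition is given as GI50. TGI marks complete inhibition of growth.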

How the values were obtained:
Test in all cases: growth of human tumour cells (NCI), 384-well format
786-0 renal = test system: 786-0 renal
A498 renal = test system: A498 renal
A549 NSCLC = test system: A549 NSCLC
ACHN renal = test system: ACHN renal
BT-549 breast = test system: BT-549 breast
CAKI-1 renal = test system: CAKI-1 renal
COLO 205 colon = test system: COLO 205 colon
DU-145 prostate = test system: DU-145 prostate
EKVX NSCLC = test system: EKVX NSCLC
HCT-116 colon = test system: HCT-116 colon
HCT-15 colon = test system: HCT-15 colon
HL-60(TB) leukemia = test system: HL-60(TB) leukemia
HOP-62 NSCLC = test system: HOP-62 NSCLC
HOP-92 NSCLC = test system: HOP-92 NSCLC
HS 578T breast = test system: HS 578T breast
HT29 colon = test system: HT29 colon
IGROV1 ovarian = test system: IGROV1 ovarian
K-562 leukemia = test system: K-562 leukemia
KM12 colon = test system: KM12 colon
M14 melanoma = test system: M14 melanoma
MALME-3M melanoma = test system: MALME-3M melanoma
MCF7 breast = test system: MCF7 breast
MDA-MB-231 breast = test system: MDA-MB-231 breast
MDA-MB-435 melanoma = test system: MDA-MB-435 melanoma
MDA-MB-468 breast = test system: MDA-MB-468 breast
NCI-H226 lung = test system: NCI-H226 lung
NCI-H23 lung = test system: NCI-H23 lung
NCI-H322M lung = test system: NCI-H322M lung
NCI-H460 NSCLC = test system: NCI-H460 NSCLC
NCI-H522 lung = test system: NCI-H522 lung
OVCAR-3 ovarian = test system: OVCAR-3 ovarian
OVCAR-5 ovarian = test system: OVCAR-5 ovarian
OVCAR-8 ovarian = test system: OVCAR-8 ovarian
PC-3 prostate = test system: PC-3 prostate
RXF 393 renal = test system: RXF 393 renal
SF-268 CNS = test system: SF-268 CNS
SF-295 CNS = test system: SF-295 CNS
SF-539 CNS = test system: SF-539 CNS
SK-MEL-2 melanoma = test system: SK-MEL-2 melanoma
SK-MEL-28 melanoma = test system: SK-MEL-28 melanoma
SK-MEL-5 melanoma = test system: SK-MEL-5 melanoma
SK-OV-3 ovarian = test system: SK-OV-3 ovarian
SN12C renal = test system: SN12C renal
SNB-19 CNS = test system: SNB-19 CNS
SNB-75 CNS = test system: SNB-75 CNS
SR leukemia = test system: SR leukemia
SW-620 colon = test system: SW-620 colon
T-47D breast = test system: T-47D breast
TK-10 renal = test system: TK-10 renal
U251 glioblastoma = test system: U251 glioblastoma
UACC-257 melanoma = test system: UACC-257 melanoma
UACC-62 melanoma = test system: UACC-62 melanoma
UO-31 renal = test system: UO-31 renal

## Cc1ncnc2c1ccn2[C@@H]1C[C@H](Oc2cc(C(F)F)c(F)c3c2CNCC3)[C@@H](O)[C@H]1O
786-0 renal
  GI50: 23.6 µM
  TGI: > 100 µM
A498 renal
  GI50: 19.3 µM
  TGI: > 100 µM
A549 NSCLC
  GI50: 57.8 µM
  TGI: > 100 µM
ACHN renal
  GI50: 39.6 µM
  TGI: > 100 µM
BT-549 breast
  GI50: 24.7 µM
  TGI: > 100 µM
CAKI-1 renal
  GI50: 19.1 µM
  TGI: > 100 µM
COLO 205 colon
  GI50: 46.5 µM
  TGI: > 100 µM
DU-145 prostate
  GI50: 82.9 µM
  TGI: > 100 µM
EKVX NSCLC
  GI50: 12.8 µM
  TGI: 96 µM
HCT-116 colon
  GI50: 15 µM
  TGI: 63.3 µM
HCT-15 colon
  GI50: 30.5 µM
  TGI: > 100 µM
HL-60(TB) leukemia
  GI50: 17 µM
  TGI: 30.8 µM
HOP-62 NSCLC
  GI50: 28.2 µM
  TGI: > 100 µM
HOP-92 NSCLC
  GI50: 28.1 µM
  TGI: > 100 µM
HS 578T breast
  GI50: 19.3 µM
  TGI: > 100 µM
HT29 colon
  GI50: 14 µM
  TGI: > 100 µM
IGROV1 ovarian
  GI50: 57.1 µM
  TGI: > 100 µM
K-562 leukemia
  GI50: 11.1 µM
  TGI: 23.8 µM
KM12 colon
  GI50: 0.0943 µM
  TGI: > 100 µM
M14 melanoma
  GI50: 18.4 µM
  TGI: 38.4 µM
MALME-3M melanoma
  GI50: 15.5 µM
  TGI: 31.3 µM
MCF7 breast
  GI50: 6.49 µM
  TGI: > 100 µM
MDA-MB-231 breast
  GI50: 39.2 µM
  TGI: > 100 µM
MDA-MB-435 melanoma
  GI50: 38.4 µM
  TGI: > 100 µM
MDA-MB-468 breast
  GI50: 6.74 µM
  TGI: 35.2 µM
NCI-H226 lung
  GI50: 25.7 µM
  TGI: > 100 µM
NCI-H23 lung
  GI50: 12.9 µM
  TGI: 52.1 µM
NCI-H322M lung
  GI50: 24.2 µM
  TGI: > 100 µM
NCI-H460 NSCLC
  GI50: 0.221 µM
  TGI: > 100 µM
NCI-H522 lung
  GI50: 33 µM
  TGI: > 100 µM
OVCAR-3 ovarian
  GI50: 17.7 µM
  TGI: > 100 µM
OVCAR-5 ovarian
  GI50: > 100 µM
  TGI: > 100 µM
OVCAR-8 ovarian
  GI50: 87.5 µM
  TGI: > 100 µM
PC-3 prostate
  GI50: 19.8 µM
  TGI: > 100 µM
RXF 393 renal
  GI50: 3.75 µM
  TGI: 24.9 µM
SF-268 CNS
  GI50: 29 µM
  TGI: > 100 µM
SF-295 CNS
  GI50: 18.9 µM
  TGI: 59.8 µM
SF-539 CNS
  GI50: 36.2 µM
  TGI: > 100 µM
SK-MEL-2 melanoma
  GI50: 22.1 µM
  TGI: 50.1 µM
SK-MEL-28 melanoma
  GI50: 17.2 µM
  TGI: 42.3 µM
SK-MEL-5 melanoma
  GI50: 5.57 µM
  TGI: 20.6 µM
SK-OV-3 ovarian
  GI50: 41.9 µM
  TGI: > 100 µM
SN12C renal
  GI50: 49.9 µM
  TGI: > 100 µM
SNB-19 CNS
  GI50: > 100 µM
  TGI: > 100 µM
SNB-75 CNS
  GI50: 20.8 µM
  TGI: 88.6 µM
SR leukemia
  TGI: 12.2 µM
SW-620 colon
  GI50: 33.3 µM
  TGI: > 100 µM
T-47D breast
  GI50: 1.92 µM
  TGI: 37.6 µM
TK-10 renal
  GI50: 25.5 µM
  TGI: > 100 µM
U251 glioblastoma
  GI50: 31.6 µM
  TGI: > 100 µM
UACC-257 melanoma
  GI50: 13.5 µM
  TGI: 27.6 µM
UACC-62 melanoma
  GI50: 12.5 µM
  TGI: 53.3 µM
UO-31 renal
  GI50: 26.4 µM
  TGI: > 100 µM
